The target of one experiment is DRB1*0404 (DR4w14) (Homo sapiens, UniProt P01903+P01911, A100R/A169T/F76Y/I96L/K127E/L162R/M171V/N62H/P40V/Q125Y/R42H/S133A/S149N/S66Y/V209L/W38E). Kind of experiment: biochemical.
Experiment [1] concerns the target T1, DRB4*0101 (DRw53) (Homo sapiens, UniProt P01903+P13762, G164S). Kind of experiment: biochemical.
The target in a further experiment is DRB5*0101 (DR2w2beta-2) (Homo sapiens, UniProt P01903+Q30154). Kind of experiment: biochemical.
The next experiment has as its target DRB1*1302 (DR6w19) (Homo sapiens, UniProt P01903+P01911, A100E/A169T/K41T/L162R/M171V/P40S/Q125H/Q178H/Q39Y/Q99D/R42S/S66N/T262R/V115G/W38E/Y61H). In words: biochemical.
The next experiment addresses DRB1*0301 (DR3) (Homo sapiens, UniProt P01903+P01911, A100K/A102G/A103R/A169T/F55Y/I96L/K41T/L162R/M171V/P40S/Q125H/Q178H/Q39Y/R42S/S66N/T106N/T262R/W38E/Y61H). In words: biochemical.
The target in another experiment is DRB1*0901 (Homo sapiens, UniProt P01903+P01911, A100R/A103E/D57H/D86V/F55Y/F60I/F76Y/I96F/K127E/L162R/M171V/P40D/Q125H/Q99R/R33Q/R42F/S133A/S66N/T210M/V115G/W38K/Y107V/Y59G/Y89S). Kind of experiment: biochemical.
A further experiment addresses DRB1*0101 (DR1) (Homo sapiens, UniProt P01903+P01911, A100R/D57E/F55L/F60I/F76Y/I96L/L162R/M171V/P40L/Q125E/R42F/V115G/Y59C). In words: biochemical.
The next experiment has as its target DRB1*0405 (DR4w15) (Homo sapiens, UniProt P01903+P01911, A100R/A169T/D86S/F76Y/I96L/K127E/L162R/M171V/N62H/P40V/Q125Y/R42H/S133A/S149N/S66Y/V115G/V209L/W38E). Kind of experiment: biochemical.
Another experiment deals with DRB1*0701 (DR7) (Homo sapiens, UniProt P01903+P01911, A100R/A102G/A103Q/D57E/D86V/E43K/F76Y/K127E/L162R/M171V/P40G/Q125H/Q99D/R33Q/R42Y/R54Q/S133A/S66F/T210M/V115G/Y107V/Y59L/Y89S). In words: biochemical.
In experiment [2] the target is T2, DRB1*0401 (DR4w4) (Homo sapiens, UniProt P01903+P01911, A100K/A169T/F76Y/I96L/K127E/L162R/M171V/N62H/P40V/Q125Y/R42H/S133A/S149N/S66Y/V115G/V209L/W38E). In words: biochemical.
For the next experiment, the target named is DRB1*0802 (DR8w2) (Homo sapiens, UniProt P01903+P01911, A100R/A103L/A169T/F76Y/H45Y/I96F/K41T/L162R/M171V/P40S/Q125H/Q178H/Q39Y/Q99D/R218S/R42G/S66Y/V115G/W38E). In words: biochemical.
Another experiment concerns the target DRB1*1101 (DR5) (Homo sapiens, UniProt P01903+P01911, A100R/A169T/A87E/I96F/K41T/L162R/M171V/P40S/Q125H/Q178H/Q39Y/Q99D/R42S/S66Y/T262R/V115G/W38E). In words: biochemical.
For experiment [3], the target named is T1, DRB4*0101 (DRw53). The note with it: read-out: IC50 nM to purified HLA DRB4 *0101; HTL epitopes.
Experiment [4] deals with T2, DRB1*0401 (DR4w4). The note with it: read-out: IC50 nM to purified HLA DRB1 *0401; HTL epitopes.
The target of a further experiment is DRB1*1501 (DR2w2beta-1) (Homo sapiens, UniProt P01903+P01911). Kind of experiment: biochemical.

Where two headings read alike, the source gives them in different places. Where no end group is shown, it is not given here.

T2 sequence (P01903 26-254 partner, other chains not shown): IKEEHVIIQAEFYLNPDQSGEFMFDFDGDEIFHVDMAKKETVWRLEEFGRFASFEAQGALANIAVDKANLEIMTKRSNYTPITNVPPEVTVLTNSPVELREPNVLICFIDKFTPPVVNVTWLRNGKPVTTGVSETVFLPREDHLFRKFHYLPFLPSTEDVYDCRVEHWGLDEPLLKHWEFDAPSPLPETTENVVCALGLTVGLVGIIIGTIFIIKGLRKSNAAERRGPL
DRB1*0405 (DR4w15), sequence (P01903 26-254 partner, other chains not shown): as above
DRB1*0301 (DR3), sequence (P01903 26-254, other chains not shown): as the sequence (P01903 26-254 partner, other chains not shown) above
DRB1*1101 (DR5), sequence (P01903 26-254 partner, other chains not shown): as above
DRB1*1302 (DR6w19), sequence (P01903 26-254, other chains not shown): as the sequence (P01903 26-254 partner, other chains not shown) above

For the compound `CC[C@H](C)[C@H](NC(=O)CNC(=O)[C@H](CCC(=O)O)NC(=O)[C@H](Cc1c[nH]cn1)NC(=O)[C@@H](NC(=O)[C@H](Cc1ccc(O)cc1)NC(=O)[C@H](Cc1ccc(O)cc1)NC(=O)[C@H](CC(C)C)NC(=O)CN)C(C)C)C(=O)N[C@@H](CCCNC(=N)N)C(=O)N[C@H](C(=O)N[C@@H](Cc1ccc(O)cc1)C(=O)N[C@@H](Cc1ccccc1)C(=O)N[C@H](C(=O)N[C@@H](CCC(N)=O)C(=O)O)C(C)C)[C@@H](C)O` [compound 93], the IC50 is over 20000 nM at DRB1*0404 (DR4w14), over 20000 nM at DRB4*0101 (DRw53) [1], 1000 nM at DRB5*0101 (DR2w2beta-2) and over 20000 nM on DRB1*1302 (DR6w19).
As for `CC[C@H](C)[C@H](N)C(=O)N[C@@H](CCC(=O)O)C(=O)N[C@@H](Cc1ccccc1)C(=O)N[C@H](C(=O)N[C@H](C(=O)N[C@@H](Cc1ccccc1)C(=O)N[C@@H](CC(C)C)C(=O)NCC(=O)N[C@@H](C)C(=O)N[C@@H](CC(C)C)C(=O)N[C@@H](CCCCN)C(=O)N[C@@H](CO)C(=O)N[C@@H](Cc1ccccc1)C(=O)N[C@@H](CC(C)C)C(=O)N[C@@H](CCCCN)C(=O)O)[C@@H](C)O)[C@@H](C)CC` [compound 99], the IC50 against DRB1*0301 (DR3) is over 20000 nM; against DRB1*0901, over 20000 nM; on DRB1*0101 (DR1), 30 nM; against DRB1*0405 (DR4w15) it was 3650 nM; on DRB1*0701 (DR7), over 20000 nM.
Consider `CC[C@H](C)[C@H](NC(=O)[C@H](C)NC(=O)[C@H](CCCCN)NC(=O)[C@@H](N)Cc1c[nH]cn1)C(=O)N[C@@H](CCC(=O)O)C(=O)N[C@@H](CC(C)C)C(=O)N[C@@H](CCC(N)=O)C(=O)N[C@@H](CCSC)C(=O)N[C@@H](C)C(=O)N[C@@H](CC(C)C)C(=O)N[C@@H](CCC(N)=O)C(=O)NCC(=O)N[C@@H](CC(C)C)C(=O)N[C@@H](C)C(=O)N[C@@H](CCC(N)=O)C(=O)O` [compound 101], for which the 50% inhibitory concentration (IC50) was 3 nM against DRB4*0101 (DRw53) [1] and 50 nM on DRB1*0401 (DR4w4) [2].
As for `CC[C@H](C)[C@H](N)C(=O)N[C@@H](CCCNC(=N)N)C(=O)N[C@H](C(=O)N[C@@H](CC(C)C)C(=O)N[C@@H](CCC(N)=O)C(=O)N[C@@H](CCC(=O)O)C(=O)N[C@@H](CC(C)C)C(=O)N[C@@H](CC(C)C)C(=O)N[C@@H](CCSC)C(=O)NCC(=O)N[C@@H](CO)C(=O)N[C@@H](Cc1ccccc1)C(=O)NCC(=O)N[C@H](C(=O)N[C@H](C(=O)O)C(C)C)[C@@H](C)CC)[C@@H](C)CC` [compound 112], the IC50 on DRB1*0101 (DR1) came out at 50 nM.
On to DWVMAIFGVNPTVAEGF [compound 114], for which the IC50 was 20 nM against DRB1*0404 (DR4w14); 571 nM at DRB4*0101 (DRw53) [1]; 3750 nM against DRB1*0301 (DR3); 387 nM against DRB5*0101 (DR2w2beta-2); 17900 nM at DRB1*0901; 4270 nM at DRB1*0802 (DR8w2). The results for the IC50 against DRB1*0405 (DR4w15) and against DRB1*1101 (DR5) were 92 nM and 4960 nM, respectively.
With “LQAIELQLTLETIYN (Human papillomavirus type 16) [SEQ ID 92]”, the values for the IC50 with DRB4*0101 (DRw53) [3] and in the experiment with DRB1*0401 (DR4w4) [4] were 2 nM and 37 nM, respectively.
On to NGWFYVEAVIDRQTG [compound 106], for which the IC50 at DRB1*0301 (DR3) turned out to be 2800 nM; against DRB5*0101 (DR2w2beta-2) it was 1200 nM; against DRB1*0901 it was 3670 nM; against DRB1*0101 (DR1), 1860 nM; against DRB1*0405 (DR4w15) it was 178 nM; at DRB1*0401 (DR4w4) [2], 845 nM. At DRB1*0701 (DR7), this compound came in with an IC50 of 1460 nM.
WKHIRLECVLMYKAR [compound 108]: the IC50 at DRB4*0101 (DRw53) [1] amounted to 102 nM; against DRB1*0301 (DR3), 146 nM; against DRB5*0101 (DR2w2beta-2) it was 412 nM; against DRB1*1501 (DR2w2beta-1), 134 nM; against DRB1*0901 it was 11800 nM; against DRB1*0802 (DR8w2), 476 nM. Moreover, the IC50 at DRB1*0405 (DR4w15) is 71 nM; on DRB1*0401 (DR4w4) [2] it was 263 nM; against DRB1*1101 (DR5), 81 nM; at DRB1*0701 (DR7), 16400 nM.
As to WKHMRLECAIYYKAR [compound 91], the IC50 was found to be 6860 nM against DRB1*0404 (DR4w14); 766 nM against DRB4*0101 (DRw53) [1]; 437 nM against DRB1*0301 (DR3); 280 nM against DRB5*0101 (DR2w2beta-2); 248 nM at DRB1*1302 (DR6w19); 1390 nM at DRB1*1501 (DR2w2beta-1). Also, the IC50 came out at 6340 nM at DRB1*0901; 90 nM at DRB1*0802 (DR8w2); 701 nM against DRB1*0101 (DR1); 557 nM against DRB1*0405 (DR4w15); 245 nM on DRB1*0401 (DR4w4) [2]; 2400 nM at DRB1*1101 (DR5). On DRB1*0701 (DR7), 504 nM corresponded to half-maximal inhibition (IC50).
